Laboratory results taken from ChEMBL document CHEMBL4725394 (J Med Chem, 2020).
Activity calls are given as the source filed them. The rule behind the calls is not given here.

Tests used:
[1] = biological target: T1, Free fatty acid receptor 1 (Homo sapiens, UniProt O14842); assay: Agonist activity at human GPR40 expressed in CHO cells at 10 uM incubated for 60 mins by FLIPR based Ca2+ mobilization assay relative to gamma-linolenic acid; assay type: functional, cell-based
HepG2 = assay: Cytotoxicity in human HepG2 cells assessed as caspase-3/7 activity level at 30 uM by Caspase-GloTM 3/7 assay relative to staurosporine; assay type: cell-based; details: hepg2, 24 h, time 1 day
[2] = biological target: T1, Free fatty acid receptor 1; assay: Agonist activity at human GPR40 expressed in CHO cells at 1 uM incubated for 60 mins by FLIPR based Ca2+ mobilization assay relative to gamma-linolenic acid; assay type: functional, cell-based
[3] = Cytotoxicity in human HepG2 cells assessed as intracellular ATP content level at 30 uM by ATPlite-M assay relative to control; assay type: cell-based; details: time 1 day, read-out: Activity
[4] = biological target: T1, Free fatty acid receptor 1; assay: Agonist activity at human GPR40 expressed in CHO cells incubated for 60 mins by FLIPR based Ca2+ mobilization assay relative to gamma-linolenic acid; assay type: functional, cell-based; details: filed as agonist
[5] = biological target: T1, Free fatty acid receptor 1; assay: Agonist activity at human GPR40 expressed in CHO cells incubated for 60 mins by FLIPR based Ca2+ mobilization assay; assay type: functional, cell-based
[6] = biological target: T1, Free fatty acid receptor 1; assay: Binding affinity to human GPR40 expressed in CHO cells by LC-MS analysis; assay type: cell-based
[7] = AUC (0 to 24 hrs) in Wistar Kyoto N-STZ-1.5 rat model of streptozotocin-induced diabetes at 0.1 to 1 mg/kg, po followed by glucose challenge during 2-week-dosing study; assay type: ADME, organism-based; set-up: time 2 weeks, dose 0.1-1; details: in vivo
[8] = Cmax in diabetic patient at 50 mg, po; assay type: ADME; set-up: dose 50 mg, route oral; details: human, in vivo
[9] = Cmax in Wistar Kyoto N-STZ-1.5 rat model of streptozotocin-induced diabetes at 0.1 to 1 mg/kg, po followed by glucose challenge during 2-week-dosing study; assay type: ADME, organism-based; set-up: time 2 weeks, dose 0.1-1; details: in vivo
[10] = AUC (0 to 24 hrs) in diabetic patient at 50 mg, po; assay type: ADME; set-up: dose 50 mg, time < 24 hr, route oral; details: human, in vivo
[11] = biological target: T1, Free fatty acid receptor 1; assay: Binding affinity to human GPR40 expressed in CHO cells in presence of 10 and 100 nM […] by LC-MS analysis based competitive binding assay; assay type: cell-based; details: filed as agonist, dose nM 10-100
[12] = biological target: T1, Free fatty acid receptor 1; assay: Binding affinity to human GPR40 expressed in CHO cells assessed as formation of protein-ternary complex by LC-MS analysis; assay type: cell-based; details: filed as agonist
Rattus norvegicus [13] = assay: Suppression of glucose tolerance in Wistar Kyoto N-STZ-1.5 rat model of streptozotocin-induced diabetes at 10 mg/kg, po followed by glucose challenge; assay type: functional, organism-based
Rattus norvegicus [14] = assay: Stimulation of insulin secretion in Wistar Kyoto N-STZ-1.5 rat model of streptozotocin-induced diabetes at 10 mg/kg, po followed by glucose challenge by ELISA; assay type: functional, organism-based
[15] = biological target: Voltage-gated inwardly rectifying potassium channel KCNH2 (Homo sapiens, UniProt Q12809); assay: Inhibition of human ERG
[16] = Cmax in ICR mouse at 1 mg/kg, po by high-performance LC-tandem MS analysis; assay type: ADME, organism-based; set-up: route oral, dose 1 mg/kg; details: in vivo
Rattus norvegicus [17] = assay: Suppression of glucose tolerance in Wistar Kyoto N-STZ-1.5 rat model of streptozotocin-induced diabetes at 0.1 to 1 mg/kg, po followed by glucose challenge; assay type: functional, organism-based; details: dose mg/kg 0.1-1
Rattus norvegicus [18] = assay: Stimulation of GLP1 release in Wistar Kyoto N-STZ-1.5 rat model of streptozotocin-induced diabetes at 0.1 to 1 mg/kg, po followed by glucose challenge by ELISA; assay type: functional, organism-based; details: dose mg/kg 0.1-1
[19] = Volume of distribution at steady state in ICR mouse at 0.1 mg/kg, iv by high-performance LC-tandem MS analysis; assay type: ADME, organism-based; details: in vivo, read-out: Vdss
Rattus norvegicus [20] = assay: Stimulation of insulin secretion in Wistar Kyoto N-STZ-1.5 rat model of streptozotocin-induced diabetes at 0.1 to 1 mg/kg, po followed by glucose challenge by ELISA; assay type: functional, organism-based; details: dose mg/kg 0.1-1
[21] = Oral bioavailability in Sprague-Dawley rat at 1 mg/kg by high-performance LC-tandem MS analysis; assay type: ADME, organism-based; details: in vivo
[22] = Cmax in Sprague-Dawley rat at 1 mg/kg, po by high-performance LC-tandem MS analysis; assay type: ADME, organism-based; set-up: route oral, dose 1 mg/kg; details: in vivo
[23] = Oral bioavailability in ICR mouse at 1 mg/kg by high-performance LC-tandem MS analysis; assay type: ADME, organism-based; details: in vivo
Rattus norvegicus [24] = assay: Suppression of body weight in Wistar Kyoto N-STZ-1.5 rat model of streptozotocin-induced diabetes at 0.1 to 1 mg/kg, po followed by glucose challenge during 2-week-dosing study; assay type: functional, organism-based; details: dose mg/kg 0.1-1, time 2.0 weeks
[25] = Total clearance in Sprague-Dawley rat at 0.1 mg/kg, iv by high-performance LC-tandem MS analysis; assay type: ADME, organism-based; details: in vivo
[26] = AUC (0 to 8 hrs ) in ICR mouse at 1 mg/kg, po by high-performance LC-tandem MS analysis; assay type: ADME, organism-based; set-up: time < 8 hr, route oral, dose 1 mg/kg; details: in vivo
[27] = Total clearance in ICR mouse at 0.1 mg/kg, iv by high-performance LC-tandem MS analysis; assay type: ADME, organism-based; details: in vivo
[28] = AUC (0 to 8 hrs) in Sprague-Dawley rat at 1 mg/kg, po by high-performance LC-tandem MS analysis; assay type: ADME, organism-based; set-up: time < 8 hr, route oral, dose 1 mg/kg; details: in vivo
[29] = Volume of distribution at steady state in Sprague-Dawley rat at 0.1 mg/kg, iv by high-performance LC-tandem MS analysis; assay type: ADME, organism-based; details: in vivo, read-out: Vdss
[30] = MRT in ICR mouse at 1 mg/kg, po by high-performance LC-tandem MS analysis; assay type: ADME, organism-based; details: in vivo
[31] = MRT in Sprague-Dawley rat at 1 mg/kg, po by high-performance LC-tandem MS analysis; assay type: ADME, organism-based; details: in vivo

T1 sequence (O14842 whole entry): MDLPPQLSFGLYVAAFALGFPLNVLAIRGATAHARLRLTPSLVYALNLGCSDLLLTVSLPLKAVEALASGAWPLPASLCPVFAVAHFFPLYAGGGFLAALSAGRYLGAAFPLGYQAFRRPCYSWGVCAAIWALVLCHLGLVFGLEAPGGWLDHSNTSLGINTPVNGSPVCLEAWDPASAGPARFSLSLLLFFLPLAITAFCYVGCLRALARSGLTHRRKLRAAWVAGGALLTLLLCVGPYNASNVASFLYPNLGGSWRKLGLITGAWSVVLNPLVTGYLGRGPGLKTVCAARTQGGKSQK
Sequence of Voltage-gated inwardly rectifying potassium channel KCNH2 (Q12809 whole entry): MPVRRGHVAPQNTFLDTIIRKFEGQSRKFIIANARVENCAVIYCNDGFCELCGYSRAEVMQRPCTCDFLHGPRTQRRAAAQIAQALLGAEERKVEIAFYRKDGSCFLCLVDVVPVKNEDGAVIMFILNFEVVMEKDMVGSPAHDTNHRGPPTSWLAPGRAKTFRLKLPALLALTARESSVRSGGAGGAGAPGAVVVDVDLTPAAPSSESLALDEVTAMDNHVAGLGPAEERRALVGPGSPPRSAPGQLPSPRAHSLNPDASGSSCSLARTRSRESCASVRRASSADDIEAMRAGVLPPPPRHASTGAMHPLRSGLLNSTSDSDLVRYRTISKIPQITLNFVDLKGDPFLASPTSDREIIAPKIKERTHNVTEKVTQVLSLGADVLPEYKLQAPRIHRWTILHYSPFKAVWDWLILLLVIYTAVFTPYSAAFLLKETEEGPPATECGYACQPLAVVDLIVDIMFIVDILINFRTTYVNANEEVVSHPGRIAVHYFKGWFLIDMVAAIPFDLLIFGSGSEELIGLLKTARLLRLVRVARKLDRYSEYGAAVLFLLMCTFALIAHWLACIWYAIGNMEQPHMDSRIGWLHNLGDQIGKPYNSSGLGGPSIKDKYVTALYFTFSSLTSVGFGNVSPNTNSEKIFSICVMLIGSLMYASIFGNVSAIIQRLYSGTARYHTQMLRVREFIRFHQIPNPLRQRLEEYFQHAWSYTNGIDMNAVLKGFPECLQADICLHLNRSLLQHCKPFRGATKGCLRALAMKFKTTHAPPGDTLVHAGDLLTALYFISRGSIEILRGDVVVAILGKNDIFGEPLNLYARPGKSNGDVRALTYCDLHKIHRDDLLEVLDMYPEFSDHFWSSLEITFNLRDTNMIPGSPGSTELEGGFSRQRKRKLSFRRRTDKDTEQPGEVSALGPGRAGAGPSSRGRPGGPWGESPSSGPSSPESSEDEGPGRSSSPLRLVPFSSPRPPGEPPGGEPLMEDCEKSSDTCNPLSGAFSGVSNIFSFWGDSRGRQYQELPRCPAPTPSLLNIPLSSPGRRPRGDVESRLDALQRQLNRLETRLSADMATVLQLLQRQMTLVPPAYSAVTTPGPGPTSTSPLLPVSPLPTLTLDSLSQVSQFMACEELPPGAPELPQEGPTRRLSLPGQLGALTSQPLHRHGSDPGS

Row | SMILES | Activity (HepG2) | viability at 24 h, 30 µM [3] | Emax [4] | EC50 [5] | further results
1 | COc1cccc(N2CCC(COc3cccc(C(CC(=O)O)C4CC4)c3)CC2)c1 (stereo unspecified) | -1.1% | 92% |  |  | Activity ([1]; filed as agonist): 91%; Activity [2]: 8%
2 | COc1ccc(C(=O)N(CC(C)(C)OC)c2ccccn2)c(N2CCC(COc3cccc(C(CC(=O)O)C4CC4)c3)CC2)c1 (stereo unspecified) |  |  | 105% | 0.1 µM | 
3 | COc1ccc(C(=O)N(CC(C)C)c2ccccn2)c(N2CCC(COc3cccc(C(CC(=O)O)C4CC4)c3)CC2)c1 (stereo unspecified) |  |  | 107% | 0.029 µM | 
4 | COc1ccc(C(=O)N(C)c2ccccc2)c(N2CCC(COc3cccc(C(CC(=O)O)C4CC4)c3)CC2)c1 (stereo unspecified) | 2.8% | 79.3% | 101% | 0.14 µM | 
5 | COc1ccc(CCCC(C)(C)C)c(N2CC(COc3cccc(C(CC(=O)O)C4CC4)c3)C2)c1 (stereo unspecified) |  |  |  | 0.25 µM | 
6 | COc1ccc(F)c(-c2ccc(COc3cccc([C@@H](CC(=O)O)C4CC4)c3)cc2C2=CCCC2(C)C)c1 |  |  | 182% | 0.15 µM | Kd [6]: 0.005 µM
7 | COc1ccc(CCCC(C)(C)C)c(-c2ccc(COc3cccc(C(CC(=O)O)C4CC4)c3)cc2)c1 (stereo unspecified) |  |  | 105% | 0.41 µM | 
8 | Cc1cc(OCCCS(C)(=O)=O)cc(C)c1-c1cccc(COc2ccc3c(c2)OC[C@H]3CC(=O)O)c1 |  |  |  |  | AUC(0-t) at 336 h [7]: 255 ng·h/mL; Cmax [8]: 5300 ng/mL; Cmax [9]: 39.8 ng/mL; AUC(0-t) at 24 h [10]: 100000 ng·h/mL
9 | COc1ccc(CCCC(C)(C)C)c(N2CCC(Oc3cccc(C(CC(=O)O)C4CC4)c3)CC2)c1 (stereo unspecified) |  |  |  |  | Activity [1]: 22%
10 | COc1ccc(C(=O)N(CC(C)(C)C#N)c2ccccn2)c(N2CCC(COc3cccc(C(CC(=O)O)C4CC4)c3)CC2)c1 (stereo unspecified) |  |  | 108% | 0.16 µM | 
11 | COc1ccc(C(=O)N(CC(C)(C)C)c2cccc(C)n2)c(N2CCC(COc3cc([C@H](CC(=O)O)C4CC4)ccn3)CC2)c1 |  |  | 109% | 0.083 µM | 
12 | COc1ccc(CCCC(C)(C)C)c(N2CCC(COc3cccc(C(CC(=O)O)C4CC4)c3)CC2)c1 (stereo unspecified) | 26% | 0.1% | 106% | 0.011 µM | Activity [11]: Active; Activity [12]: Active
13 | N[C@@H](CC(=O)N1CCn2c(nnc2C(F)(F)F)C1)Cc1cc(F)c(F)cc1F |  |  |  |  | Activity (Rattus norvegicus [13]): Active; Activity (Rattus norvegicus [14]): Active
14 | COc1ccc(C(=O)N(CC(C)(C)C)c2cccc(C)n2)c(N2CCC(COc3cccc(C(CC(=O)O)C4CC4)n3)CC2)c1 (stereo unspecified) |  |  |  |  | Activity [1]: 39%
15 | CCOC(CC(=O)O)c1cccc(OCC2CCN(c3cc(OC)ccc3C(=O)N(CC(C)(C)C)c3cccc(C)n3)CC2)c1 (stereo unspecified) |  |  | 104% | 0.074 µM | 
16 | COc1ccc(F)c(N2CCC(COc3cccc(C(CC(=O)O)C4CC4)c3)CC2)c1 (stereo unspecified) | -1.7% | 72.7% | 114% | 0.67 µM | 

Row | SMILES | Activity (HepG2) | viability at 24 h, 30 µM [3] | Emax [4] | EC50 [5] | further results
17 | COc1ccc(C(=O)N(C)c2ccccn2)c(N2CCC(COc3cccc(C(CC(=O)O)C4CC4)c3)CC2)c1 (stereo unspecified) | -1.1% | 83.6% | 105% | 0.18 µM | 
18 | COc1ccc(CN(C)CC(C)C)c(N2CCC(COc3cccc(C(CC(=O)O)C4CC4)c3)CC2)c1 (stereo unspecified) | -1.1% | 80.7% | 110% | 1 µM | 
19 | COc1ccc(C(=O)N(CC(C)(C)C)c2cccc(C)n2)c(N2CCC(COc3cccc(C4(CC(=O)O)COC4)c3)CC2)c1 |  |  | 115% | 0.84 µM | 
20 | COCC(CC(=O)O)c1cccc(OCC2CCN(c3cc(OC)ccc3C(=O)N(CC(C)(C)C)c3cccc(C)n3)CC2)c1 (stereo unspecified) |  |  | 104% | 0.12 µM | 
21 | COc1ccc(C(=O)N(CC(C)(C)C)c2cccc(C)n2)c(N2CCC(COc3cc([C@@H](CC(=O)O)C4CC4)ccn3)CC2)c1 |  | 92.1% | 108% | 0.012 µM | IC50 [15]: > 10 µM; Cmax [16]: 33.2 ng/mL; Activity (Rattus norvegicus [17]): Active; Activity (Rattus norvegicus [18]): Active; AUC(0-t) at 336 h [7]: 626 ng·h/mL; Vd [19]: 1.35 L/kg; Activity (Rattus norvegicus [20]): Active; bioavailability [21]: 16%; Cmax [22]: 19.9 ng/mL; bioavailability [23]: 26%; Activity (Rattus norvegicus [24]): Active; clearance [25]: 24.6 mL/min/kg; Cmax [9]: 139 ng/mL; AUC(0-t) at 8 h [26]: 98.7 ng·h/mL; clearance [27]: 43.1 mL/min/kg; AUC(0-t) at 8 h [28]: 127 ng·h/mL; Vd [29]: 3.09 L/kg; MRT [30]: 2.3 h; MRT [31]: 4.1 h
22 | COc1ccc(F)c(-c2ccc(COc3cccc([C@@H](CC(=O)O)C4CC4)c3)nc2CC(C)(C)C)c1 |  |  | 66% | 0.15 µM | 
23 | COc1ccc(C(=O)N(CC(C)(C)C)c2cccc(C)n2)c(N2CCC(COc3cc(C(CC(=O)O)C4CC4)ccn3)CC2)c1 (stereo unspecified) |  |  | 112% | 0.017 µM | 
24 | COc1ccc(CCC(C)(C)C)c(N2CCC(COc3cccc(C(CC(=O)O)C4CC4)c3)CC2)c1 (stereo unspecified) | 67.3% | 0.1% | 110% | 0.034 µM | 
25 | COc1ccc(C(=O)N(CC(C)(C)C)c2cccc(C)n2)c(N2CCC(COc3cccc(C(CC(=O)O)C4CC4)c3)CC2)c1 (stereo unspecified) |  |  | 109% | 0.017 µM | 
26 | COc1ccc(C)c(N2CCC(COc3cccc(C(CC(=O)O)C4CC4)c3)CC2)c1 (stereo unspecified) | 8.3% | 67.4% | 113% | 0.27 µM | 
27 | COc1ccc(CCC(C)(C)O)c(N2CCC(COc3cccc(C(CC(=O)O)C4CC4)c3)CC2)c1 (stereo unspecified) | 0.1% | 76.6% | 109% | 0.97 µM | 
28 | COc1ccc(C(C)C)c(N2CCC(COc3cccc(C(CC(=O)O)C4CC4)c3)CC2)c1 (stereo unspecified) | 43.4% | 0.1% | 117% | 0.12 µM | 
29 | COc1ccc(C(=O)N(CC(C)(C)C)c2cccc(C)n2)c(N2CCC(COc3cccc(C(CC(=O)O)OC)c3)CC2)c1 (stereo unspecified) |  |  | 109% | 0.062 µM | 
30 | COc1ccc(C(=O)N(C)CC(C)(C)C)c(N2CCC(COc3cccc(C(CC(=O)O)C4CC4)c3)CC2)c1 (stereo unspecified) | 6.6% | 82.2% | 107% | 0.1 µM | 
31 | COc1ccc(C(=O)N(CC(C)(C)C)c2ccccn2)c(N2CCC(COc3cccc(C(CC(=O)O)C4CC4)c3)CC2)c1 (stereo unspecified) |  |  | 110% | 0.026 µM | 
